According to patent publication US20220054513A1, “COMBINATION COMPOSITIONS COMPRISING A BETA-LACTAMASE INHIBITOR” (VenatoRx Pharmaceuticals, Inc., priority 2018, published 2022):
Like-named read-outs stand apart in the source and are kept apart here.

Key:
[1] = tested on: β-lactamase expressing Enterobacteriaceae; experiment: broth microdilution MIC of cefiderocol +/- Compound 1, panel of 30 Enterobacteriaceae strains (MIC50/MIC90); format: cell-based
[2] = tested on: β-lactamase expressing E. coli; experiment: broth microdilution MIC of cefiderocol +/- Compound 1, E. coli strains; format: cell-based; settings: Escherichia coli
[3] = tested on: β-lactamase expressing K. pneumoniae; experiment: broth microdilution MIC of cefiderocol +/- Compound 1, K. pneumoniae strains; format: cell-based; settings: Klebsiella pneumoniae
[4] = tested on: β-lactamase expressing P. mirabilis; experiment: broth microdilution MIC of cefiderocol +/- Compound 1, P. mirabilis strain; format: cell-based; settings: Proteus mirabilis, read-out: Minimum inhibitory concentration (MIC), P. mirabilis CDC-159 (NDM)
MDR-Acinetobacter = experiment: broth microdilution MIC of cefiderocol +/- Compound 1 in IDM, panel of 40 MDR Acinetobacter; format: cell-based, A. baumannii; settings: IDM

Question: How did the MIC50 ([1]; IDM) turn out when `CC(C)(O/N=C(\C(=O)N[C@@H]1C(=O)N2C(C(=O)[O-])=C(C[N+]3(CCNC(=O)c4ccc(O)c(O)c4Cl)CCCC3)CS[C@H]12)c1csc(N)n1)C(=O)O` [FDC, cefiderocol] was run?
Answer: Its MIC50 is 0.5 µg/mL.

Question: And the MIC90 ([1]; IDM)?
Answer: Its MIC90 is 4 µg/mL.

Question: What about the MIC50 ([1]; MHBII) of the same compound?
Answer: The MIC50 was 4 µg/mL.

Question: And the MIC90 ([1]; MHBII)?
Answer: The MIC90 was 32 µg/mL.

Question: And the MIC ([2]; read-out: Minimum inhibitory concentration (MIC), E. coli 128 (AmpC, SHV-12, TOHO-2, TEM-1), IDM)?
Answer: The MIC was 0.5 µg/mL.

Question: And the MIC ([2]; read-out: Minimum inhibitory concentration (MIC), E. coli 128 (AmpC, SHV-12, TOHO-2, TEM-1), MHBII)?
Answer: The MIC was 2 µg/mL.

Question: What about the MIC ([2]; read-out: Minimum inhibitory concentration (MIC), E. coli 3073 (AmpC, CTX-M3), IDM) of the same compound?
Answer: Its MIC is 0.5 µg/mL.

Question: What about the MIC ([2]; read-out: Minimum inhibitory concentration (MIC), E. coli 3073 (AmpC, CTX-M3), MHBII) of the same compound?
Answer: Its MIC is 8 µg/mL.

Question: And the MIC ([2]; read-out: Minimum inhibitory concentration (MIC), E. coli 3327 (TEM-1, SHV-12), IDM)?
Answer: The MIC was 0.125 µg/mL.

Question: And the MIC ([2]; read-out: Minimum inhibitory concentration (MIC), E. coli 3327 (TEM-1, SHV-12), MHBII)?
Answer: Its MIC is 0.5 µg/mL.

Question: What about the MIC ([2]; read-out: Minimum inhibitory concentration (MIC), E. coli 786978 (KPC 2), IDM) of the same compound?
Answer: The MIC was 0.25 µg/mL.

Question: And the MIC ([2]; read-out: Minimum inhibitory concentration (MIC), E. coli 786978 (KPC 2), MHBII)?
Answer: The MIC was 4 µg/mL.

Question: And the MIC ([2]; read-out: Minimum inhibitory concentration (MIC), E. coli 787112 (OXA 48), IDM)?
Answer: The MIC was 64 µg/mL.

Question: What about the MIC ([2]; read-out: Minimum inhibitory concentration (MIC), E. coli 787112 (OXA 48), MHBII) of the same compound?
Answer: The MIC was 64 µg/mL.

Question: What about the MIC ([2]; read-out: Minimum inhibitory concentration (MIC), E. coli CDC-61 (KPC-3 TEM-1), IDM) of the same compound?
Answer: Its MIC is 0.125 µg/mL.

Question: And the MIC ([2]; read-out: Minimum inhibitory concentration (MIC), E. coli CDC-61 (KPC-3 TEM-1), MHBII)?
Answer: Its MIC is 0.25 µg/mL.

Question: What about the MIC ([2]; read-out: Minimum inhibitory concentration (MIC), E. coli CDC-114 (KPC-3), IDM) of the same compound?
Answer: The MIC was 0.5 µg/mL.

Question: What about the MIC ([2]; read-out: Minimum inhibitory concentration (MIC), E. coli CDC-114 (KPC-3), MHBII) of the same compound?
Answer: The MIC was 4 µg/mL.

Question: And the MIC ([2]; read-out: Minimum inhibitory concentration (MIC), E. coli CDC-150 (NDM-5), IDM)?
Answer: The MIC was 4 µg/mL.

Question: What about the MIC ([2]; read-out: Minimum inhibitory concentration (MIC), E. coli CDC-150 (NDM-5), MHBII) of the same compound?
Answer: The MIC was 128 µg/mL.

Question: And the MIC ([2]; read-out: Minimum inhibitory concentration (MIC), E. coli GUE 131 (NDM-1), IDM)?
Answer: Its MIC is 1 µg/mL.

Question: And the MIC ([2]; read-out: Minimum inhibitory concentration (MIC), E. coli GUE 131 (NDM-1), MHBII)?
Answer: The MIC was 2 µg/mL.

Question: And the MIC ([2]; read-out: Minimum inhibitory concentration (MIC), E. coli SI-151 (VIM-1), IDM)?
Answer: The MIC was 0.125 µg/mL.

Question: And the MIC ([2]; read-out: Minimum inhibitory concentration (MIC), E. coli SI-151 (VIM-1), MHBII)?
Answer: Its MIC is 0.5 µg/mL.

Question: And the MIC ([2]; read-out: Minimum inhibitory concentration (MIC), E. coli SI-152 (NDM-1), IDM)?
Answer: Its MIC is 0.125 µg/mL.

Question: And the MIC ([2]; read-out: Minimum inhibitory concentration (MIC), E. coli SI-152 (NDM-1), MHBII)?
Answer: The MIC was 0.125 µg/mL.

Question: What about the MIC ([2]; read-out: Minimum inhibitory concentration (MIC), E. coli SI-155S (VIM-1), IDM) of the same compound?
Answer: Its MIC is 1 µg/mL.

Question: What about the MIC ([2]; read-out: Minimum inhibitory concentration (MIC), E. coli SI-155S (VIM-1), MHBII) of the same compound?
Answer: The MIC was 2 µg/mL.

Question: What about the MIC ([2]; read-out: Minimum inhibitory concentration (MIC), E. coli SI-P026TC (CMY-2, TEM-1), IDM) of the same compound?
Answer: The MIC was 0.125 µg/mL.

Question: What about the MIC ([2]; read-out: Minimum inhibitory concentration (MIC), E. coli SI-P026TC (CMY-2, TEM-1), MHBII) of the same compound?
Answer: Its MIC is 0.25 µg/mL.

Question: And the MIC ([3]; read-out: Minimum inhibitory concentration (MIC), K. pneummoniae CDC-34 (IMP), IDM)?
Answer: Its MIC is 0.125 µg/mL.

Question: What about the MIC ([3]; read-out: Minimum inhibitory concentration (MIC), K. pneummoniae CDC-34 (IMP), MHBII) of the same compound?
Answer: The MIC was 2 µg/mL.

Question: What about the MIC ([3]; read-out: Minimum inhibitory concentration (MIC), K. pneummoniae CDC-40 (VIM), IDM) of the same compound?
Answer: The MIC was 1 µg/mL.

Question: What about the MIC ([3]; read-out: Minimum inhibitory concentration (MIC), K. pneummoniae CDC-40 (VIM), MHBII) of the same compound?
Answer: The MIC was 2 µg/mL.

Question: What about the MIC ([3]; read-out: Minimum inhibitory concentration (MIC), K. pneummoniae CDC-41 (NDM), IDM) of the same compound?
Answer: The MIC was 8 µg/mL.

Question: What about the MIC ([3]; read-out: Minimum inhibitory concentration (MIC), K. pneummoniae CDC-41 (NDM), MHBII) of the same compound?
Answer: The MIC was 128 µg/mL.

Question: And the MIC ([3]; read-out: Minimum inhibitory concentration (MIC), K. pneummoniae CDC-140 (OXA-181), IDM)?
Answer: The MIC was 0.25 µg/mL.

Question: And the MIC ([3]; read-out: Minimum inhibitory concentration (MIC), K. pneummoniae CDC-140 (OXA-181), MHBII)?
Answer: Its MIC is 0.5 µg/mL.

Question: And the MIC ([3]; read-out: Minimum inhibitory concentration (MIC), K. pneummoniae CDC-153 (NDM, OXA-232), IDM)?
Answer: The MIC was 0.06 µg/mL.

Question: And the MIC ([3]; read-out: Minimum inhibitory concentration (MIC), K. pneummoniae CDC-153 (NDM, OXA-232), MHBII)?
Answer: Its MIC is 32 µg/mL.

Question: What about the MIC ([3]; read-out: Minimum inhibitory concentration (MIC), K. pneumoniae 847204 (KPC-2), IDM) of the same compound?
Answer: Its MIC is 0.5 µg/mL.

Question: What about the MIC ([3]; read-out: Minimum inhibitory concentration (MIC), K. pneumoniae 847204 (KPC-2), MHBII) of the same compound?
Answer: The MIC was 16 µg/mL.

Question: And the MIC ([3]; read-out: Minimum inhibitory concentration (MIC), K. pneumoniae 847375 (SHV-12, KPC-2), IDM)?
Answer: The MIC was 2 µg/mL.

Question: And the MIC ([3]; read-out: Minimum inhibitory concentration (MIC), K. pneumoniae 847375 (SHV-12, KPC-2), MHBII)?
Answer: The MIC was 32 µg/mL.

Question: And the MIC ([3]; read-out: Minimum inhibitory concentration (MIC), K. pneumoniae 847747 (CTX-M-2, KPC), IDM)?
Answer: Its MIC is 0.125 µg/mL.

Question: What about the MIC ([3]; read-out: Minimum inhibitory concentration (MIC), K. pneumoniae 847747 (CTX-M-2, KPC), MHBII) of the same compound?
Answer: The MIC was 8 µg/mL.

Question: What about the MIC ([3]; read-out: Minimum inhibitory concentration (MIC), K. pneumoniae KIRK (OXA-162), IDM) of the same compound?
Answer: Its MIC is 0.25 µg/mL.

Question: And the MIC ([3]; read-out: Minimum inhibitory concentration (MIC), K. pneumoniae KIRK (OXA-162), MHBII)?
Answer: The MIC was 32 µg/mL.

Question: What about the MIC ([3]; read-out: Minimum inhibitory concentration (MIC), K. pneumoniae KPC157 (KPC-3), IDM) of the same compound?
Answer: The MIC was 0.5 µg/mL.

Question: And the MIC ([3]; read-out: Minimum inhibitory concentration (MIC), K. pneumoniae KPC157 (KPC-3), MHBII)?
Answer: Its MIC is 8 µg/mL.

Question: What about the MIC ([3]; read-out: Minimum inhibitory concentration (MIC), K. pneumoniae KPC261 (KPC-2), IDM) of the same compound?
Answer: The MIC was 0.5 µg/mL.

Question: And the MIC ([3]; read-out: Minimum inhibitory concentration (MIC), K. pneumoniae KPC261 (KPC-2), MHBII)?
Answer: The MIC was 16 µg/mL.

Question: And the MIC ([3]; read-out: Minimum inhibitory concentration (MIC), K. pneumoniae OMAN 13 (NDM-1), IDM)?
Answer: Its MIC is 2 µg/mL.

Question: What about the MIC ([3]; read-out: Minimum inhibitory concentration (MIC), K. pneumoniae OMAN 13 (NDM-1), MHBII) of the same compound?
Answer: The MIC was 32 µg/mL.

Question: And the MIC ([3]; read-out: Minimum inhibitory concentration (MIC), K. pneumoniae SI-117 (VIM-1), IDM)?
Answer: Its MIC is 4 µg/mL.

Question: And the MIC ([3]; read-out: Minimum inhibitory concentration (MIC), K. pneumoniae SI-117 (VIM-1), MHBII)?
Answer: Its MIC is 16 µg/mL.

Question: And the MIC ([4]; IDM)?
Answer: The MIC was 4 µg/mL.

Question: What about the MIC ([4]; MHBII) of the same compound?
Answer: Its MIC is 32 µg/mL.

Question: What about the “Minimum inhibitory concentration (MIC)” value (MDR-Acinetobacter; A. baumannii 157076) of the same compound?
Answer: The value was 0.125 µg/mL.

Question: And the “Minimum inhibitory concentration (MIC)” value (MDR-Acinetobacter; A. baumannii 157078)?
Answer: Its value is 0.125 µg/mL.

Question: And the “Minimum inhibitory concentration (MIC)” value (MDR-Acinetobacter; A. baumannii 161761)?
Answer: The value was 0.125 µg/mL.

Question: And the “Minimum inhibitory concentration (MIC)” value (MDR-Acinetobacter; A. baumannii 163264)?
Answer: Its value is 0.125 µg/mL.

Question: And the “Minimum inhibitory concentration (MIC)” value (MDR-Acinetobacter; A. baumannii 164890)?
Answer: The value was 0.125 µg/mL.

Question: What about the “Minimum inhibitory concentration (MIC)” value (MDR-Acinetobacter; A. baumannii 164891) of the same compound?
Answer: Its value is 0.125 µg/mL.
